Measured values as given in patent publication US20190185479A1, “BICYCLIC NITROGENATED HETEROCYCLIC COMPOUND” (MITSUBISHI TANABE PHARMA CORPORATION, priority 2016, published 2019).
Where a name gives a salt, the structure may show the parent alone.

Molecular target: T1, Human PDE7B (hPDE7B) (Homo sapiens, UniProt Q9NP56)
T1 construct: made in house; host or cells: COS-7 cells
Test: Measurement of PDE7 inhibitory activity (Experimental Example 1; residual cAMP, LANCE Ultra cAMP TR-FRET)
Assay type: biochemical
Settings: for IC50: cAMP 3 nmol/L, room temperature 60 minutes
Experimental: Human PDE7B (hPDE7B) was isolated from COS-7 cells transfected with plasmids encoding hPDE7B according to the method described in a reference, Biochemical and Biophysical Research Communication, 271, p. 575-583 (2000). The resulting enzyme solution was used in the PDE assay.
PDE7 inhibitory assay was carried out by reacting the mixture of a compound, hPDE7B, and cAMP, and measuring the residual cAMP by a detection method using LANCE (registered trademark) Ultra cAMP Detection Kit (ParkinElmer). The compound was dissolved in DMSO, and diluted so that the concentration would become 50 times of the final concentration. The hPDE7B and cAMP were diluted with an assay buffer (50 mmol/L Tris-HCl, 1 mmol/L MgCl2, 0.1% BSA, 0.5 mmol/L DTT, pH7.5) so that the hPDE7B would have an appropriate enzyme activity and the concentration of cAMP would become 6 nmol/L. To a 96 well plate were added the compound (2 μL) (DMSO final concentration: 2%), hPDE7B (48 μL), and cAMP (50 μL) (concentration at the reaction: 3 nmol/L), and the resulting mixture was reacted at room temperature for 60 minutes. The reaction solution (20 μL) was subjected to a TR-FRET method according to the protocol specified by the kit to measure the concentration of the residual cAMP. In the assay, to a tracer solution specified by the kit was added 0.5 mmol/L of 3-isobutyl-1-methylxanthine (IBMX, nonselective PDE inhibitor) in order to stop the PDE enzyme reaction after the completion of reaction until the measurement.
The reaction without a compound was defined as “0% inhibition”, the reaction without hPDE7B was defined as “100% inhibition”, and the inhibition rate of the compound was calculated by the following equation.
Inhibition rate of compound (%)={(Residual cAMP concentration at the addition of compound−Residual cAMP concentration in 0% inhibition)/(Residual cAMP concentration in 100% inhibition−Residual cAMP concentration in 0% inhibition)}×100

T1 sequence (Q9NP56 whole entry): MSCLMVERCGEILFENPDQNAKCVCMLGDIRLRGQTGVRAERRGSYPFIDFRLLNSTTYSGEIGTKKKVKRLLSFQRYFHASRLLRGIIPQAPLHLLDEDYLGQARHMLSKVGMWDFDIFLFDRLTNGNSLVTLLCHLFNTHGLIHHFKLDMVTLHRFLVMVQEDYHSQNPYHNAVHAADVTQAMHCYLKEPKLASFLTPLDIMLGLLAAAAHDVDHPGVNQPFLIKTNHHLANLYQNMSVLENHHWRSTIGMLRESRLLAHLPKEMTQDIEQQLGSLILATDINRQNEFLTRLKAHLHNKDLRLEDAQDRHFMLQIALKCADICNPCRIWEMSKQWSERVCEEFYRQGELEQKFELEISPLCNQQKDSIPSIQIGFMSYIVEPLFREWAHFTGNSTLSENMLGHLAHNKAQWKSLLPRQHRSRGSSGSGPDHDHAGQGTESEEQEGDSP

| SMILES | IC50 [nM] | inhibition at 1 µM (compound at 1 μmol/L) [%] |
| --- | --- | --- |
| CC1CCC(F)(F)CC1c1nnc2c(N)ncnn12 (single isomer, unassigned) [Example 247, 3-(cis-5,5-difluoro-2-methylcyclohexyl) [1,2,4]triazolo[3,4-f][1,2,4]triazin-8-amine] | 629 | – |
| C=C(C)[C@H]1CC[C@H](C)C(n2nnc3c(N)ncnc32)C1 (stereo in doubt) [Example 107, 3-[(1R,2S,5S)-2-methyl-5-(prop-1-en-2-yl)cyclohexyl]-3H-[1,2,3]triazolo[4,5-d]pyrimidin-7-amine] | > 1000 | 35 |
| Nc1nc(C(F)(F)F)nc2c1nnn2C1CCCCC1 [Example 6] | 340 | – |
| C[C@]1(O)CC[C@@H](n2nnc3c(N)ncnc32)CC1 [Example 9] | 890 | – |
| Nc1ncnc2c1nnn2C12CC3CC(CC(C3)C1)C2 [Example 10] | 100 | – |
| CC(C)(C)OC(=O)N1CCCC(n2nnc3c(N)ncnc32)C1 (stereo not shown) [Example 11] | 400 | – |
| CC(C)(C)OC(=O)N1CCC[C@@H](n2nnc3c(N)ncnc32)C1 [Example 12, tert-butyl (3R)-3-(7-amino-3H-[1,2,3]triazolo[4,5-d]pyrimidin-3-yl)piperidine-1-carboxylate] | 620 | – |
| Nc1ncnc2c1nnn2-c1c(F)cccc1F [Example 14] | 560 | – |
| CC(c1ccccc1)n1nnc2c(N)ncnc21 (stereo not shown) [Example 15] | 570 | – |
| C[C@@H](c1ccc(F)cc1)n1nnc2c(N)ncnc21 [Example 16] | 350 | – |
| Nc1ncnc2c1nnn2C1CCCc2ccccc21 (stereo not shown) [Example 33] | 520 | – |
| Nc1ncnc2c1nnn2C1CCc2ccccc2C1 (stereo not shown) [Example 34] | 460 | – |
| Nc1nccn2c(N3C4CCC3CC4)nnc12 [Example 66] | 360 | – |
| CC1(C)CCCN(c2nnc3c(N)ncc(-c4ccccc4)n23)C1 [Example 81] | 160 | – |
| Nc1ncnc2c1nnn2C1CCCCC1 [Example 85, 3-cyclohexyl-3H-[1,2,3]triazolo[4,5-d]pyrimidin-7-amine hydrochloride] | 40 | – |
| Nc1ncnc2c1nnn2[C@@H]1CCCC(F)(F)C1 [Example 88] | 840 | – |
| Nc1ncnc2c1nnn2[C@H]1CCCOC1 [Example 91] | 360 | – |

| SMILES | IC50 [nM] | inhibition at 1 µM (compound at 1 μmol/L) [%] |
| --- | --- | --- |
| CCOc1nc(N)c2nnn(C3CCCCC3)c2n1 [Example 93, 3-cyclohexyl-5-ethoxy-3H-[1,2,3]triazolo[4,5-d]pyrimidin-7-amine] | 20 | – |
| Nc1ncnc2c1nnn2[C@H]1CC[C@@H](C(F)(F)F)CC1 [Example 102] | 250 | – |
| Nc1ncnc2c1nnn2[C@H]1CC[C@H](C(F)(F)F)CC1 [Example 103] | 450 | – |
| C[C@@H]1C[C@H](C)C[C@@H](n2nnc3c(N)ncnc32)C1 [Example 105] | 310 | – |
| CC1CC(n2nnc3c(N)ncnc32)CC(C)(C)C1 (stereo not shown) [Example 108] | 230 | – |
| Nc1ncnc2c1nnn2C1CCCCC1F (stereo not shown) [Example 112] | 170 | – |
| COC1CCCCC1n1nnc2c(N)ncnc21 (stereo not shown) [Example 116] | 380 | – |
| CCC1CCCC(n2nnc3c(N)ncnc32)C1 (stereo not shown) [Example 117] | 80 | – |
| Nc1ncnc2c1nnn2C1CCCC(C(F)F)C1 (stereo not shown) [Example 119] | 20 | – |
| Nc1ncnc2c1nnn2C1CCCC(CC(F)(F)F)C1 (stereo not shown) [Example 120] | 380 | – |
| COC1CCCC(n2nnc3c(N)ncnc32)C1 (stereo not shown) [Example 121] | 870 | – |
| COC1CCCC(n2nnc3c(N)ncnc32)C1 (stereo not shown) [Example 123] | 420 | – |
| Nc1ncnc2c1nnn2C1CCCC(CO)C1 (stereo not shown) [Example 124] | 260 | – |
| Cc1cnc(C2CCCC(n3nnc4c(N)ncnc43)C2)s1 (stereo not shown) [Example 127] | 730 | – |
| Cc1ccc(F)c(-n2nnc3c(N)ncnc32)c1 [Example 129] | 750 | – |
| Nc1ncnc2c1nnn2-c1cccc(C(F)(F)F)c1 [Example 130] | 490 | – |
| Nc1ncnc2c1nnn2-c1cccc(C(=O)NCc2ccccc2)c1 [Example 131] | 250 | – |

Other lines, results leading:

| IC50 [nM] | inhibition at 1 µM (compound at 1 μmol/L) [%] | SMILES |
| --- | --- | --- |
| 190 | – | CC1CC(C)CN(c2nnc3c(N)nccn23)C1 (single isomer, unassigned) [Example 227, 3-[trans-3,5-dimethylpiperidin-1-yl][1,2,4]triazolo[4,3-a]pyrazin-8-amine] |
| 540 | – | CC1CCN(c2nnc3c(N)nccn23)CC1C (single isomer, unassigned) [Example 228, 3-(3,4-dimethylpiperidin-1-yl) [1,2,4]triazolo[4,3-a]pyrazin-8-amine] |
| 310 | – | CC1CCN(c2nnc3c(N)nccn23)CC1C (single isomer, unassigned) [Example 229, 3-(3,4-dimethylpiperidin-1-yl) [1,2,4]triazolo[4,3-a]pyrazin-8-amine] |
| 100 | – | CC1CCC(C)N(c2nnc3c(N)nccn23)C1 (single isomer, unassigned) [Example 233, 3-(2,5-dimethylpiperidin-1-yl) [1,2,4]triazolo[4,3-a]pyrazin-8-amine] |
| 16 | – | CC1CCC(C)N(c2nnc3c(N)ncc(C#N)n23)C1 (single isomer, unassigned) [Example 235, 8-amino-3-(2,5-dimethylpiperidin-1-yl) [1,2,4]triazolo[4,3-a]pyrazine-5-carbonitrile] |
| 2.8 | – | CC1CCC(C)(C)CN1c1nnc2c(N)nccn12 (single isomer, unassigned) [Example 237, 3-(2,5,5-trimethylpiperidin-1-yl) [1,2,4]triazolo[4,3-a]pyrazin-8-amine] |
| 110 | – | CC1CCCCC1c1nnc2c(N)ncnn12 (single isomer, unassigned) [Example 239, 3-(cis-2-methylcyclohexyl) [1,2,4]triazolo[3,4-f][1,2,4]triazin-8-amine] |
| 230 | – | CC1CCCC(c2nnc3c(N)ncnn23)C1 (single isomer, unassigned) [Example 241, 3-(cis-3-methylcyclohexyl) [1,2,4]triazolo[3,4-f][1,2,4]triazin-8-amine] |
| 120 | – | CC1(C)CCCC(c2nnc3c(N)ncnn23)C1 (single isomer, unassigned) [Example 243, 3-(3,3-dimethylcyclohexyl) [1,2,4]triazolo[3,4-f][1,2,4]triazin-8-amine] |
| 850 | – | Nc1ncnn2c(C3CCCC(C(F)(F)F)C3)nnc12 (single isomer, unassigned) [Example 245, 3-[cis-3-(trifluoromethyl)cyclohexyl][1,2,4]triazolo[3,4-f][1,2,4]triazin-8-amine] |
| 460 | – | Nc1nccn2c(C3CCC3)nnc12 [Example 18] |
| 240 | – | C=C1CC(c2nnc3c(N)nccn23)C1 [Example 19, 3-(3-methylenecyclobutyl)-[1,2,4]triazolo[4,3-a]pyrazin-8-amine] |
| 90 | – | C[C@H]1CCCCN1c1nnc2c(N)nccn12 [Example 21, 3-(2-methylpiperidin-1-yl) [1,2,4]triazolo[4,3-a]pyrazin-8-amine] |
| 190 | – | CCC1CCCN(c2nnc3c(N)nccn23)C1 (stereo not shown) [Example 25] |
| 320 | – | Nc1nccn2c(N3CCCC(F)C3)nnc12 (stereo not shown) [Example 27] |
| 390 | – | Nc1nccn2c(N3CCCCCCC3)nnc12 [Example 30] |

| IC50 [nM] | inhibition at 1 µM (compound at 1 μmol/L) [%] | SMILES |
| --- | --- | --- |
| 480 | – | Nc1nccn2c(N3C[C@H]4C[C@H]4C3)nnc12 [Example 31] |
| 200 | – | Nc1ncnc2c1nnn2C1CCC1 [Example 35] |
| 380 | – | CC1(C)CCCCN1c1nnc2c(N)nccn12 [Example 36, 3-(2,2-dimethylpiperidin-1-yl)-[1,2,4]triazolo[4,3-a]pyrazin-8-amine] |
| 490 | – | CC(C)C1CCCCN1c1nnc2c(N)nccn12 (stereo not shown) [Example 37] |
| 220 | – | Nc1nccn2c(N3CCCCC3C(F)(F)F)nnc12 (stereo not shown) [Example 39] |
| 730 | – | Nc1nccn2c(N3CCCCC3Cc3ccccc3)nnc12 (stereo not shown) [Example 40] |
| 290 | – | Nc1nccn2c(N3CCCCC3c3ccccc3)nnc12 (stereo not shown) [Example 41] |
| 210 | – | Nc1nccn2c(N3CCCC4(CCCC4)C3)nnc12 [Example 45] |
| 300 | – | Nc1nccn2c(N3CCCC(F)(F)C3)nnc12 [Example 47] |
| 260 | – | Nc1nccn2c(N3CCCC(c4ccccc4)C3)nnc12 (stereo not shown) [Example 49] |
| 520 | – | CCC1CCN(c2nnc3c(N)nccn23)CC1 [Example 50] |
| 110 | – | CC1(C)CCN(c2nnc3c(N)nccn23)CC1 [Example 51] |
| 304 | – | C[C@@H]1CCC[C@@H](C)N1c1nnc2c(N)nccn12 [Example 63] |
| 107 | – | C[C@H]1CCC[C@H](C)N1c1nnc2c(N)nccn12 [Example 64] |
| 140 | – | Nc1nccn2c(N3CCC4(CC3)CC4)nnc12 [Example 78] |
| 730 | – | Nc1nccn2c(C3CC(F)(F)C3)nnc12 [Example 84, 3-(3,3-difluorocyclobutyl)-[1,2,4]triazolo[4,3-a]pyrazin-8-amine] |
